According to US10451536B2, “Method and apparatus for multi-parameter data analysis” (GE HEALTHCARE UK LIMITED, priority 2009, dated 2019):

Test system: CHO-K1 cells
Test: High-content screening of nuclear morphology in CHO-K1 cells treated with Mitomycin C, with KS distance analysis
Format: cell-based
Procedure: CHO-K1 cells were seeded into a GE Healthcare 96 well MatriPlate at 6000 cells/well in Ham's F12 media supplemented with 5% EBS and incubated under standard tissue culture conditions for 24 hours. Mitomycin C (MMC) solutions were added in culture media to provide final concentrations in the assay of […] and cells incubated for a further 48 hours. Media was removed from wells and cells washed once with […] phosphate buffered saline (PBS), followed by fixation in ethanol for 30 minutes at room temperature. Nuclei were stained with […] HOECHST™ 33342 (Sigma) at room temperature for 15 minutes and cells washed with […] PBS.
Cells were imaged by a GE Healthcare INCELL ANALYZER 1000™ using v3.5 acquisition software (available from GE Healthcare) with a 20× objective. Images were acquired using on-line cell counting to acquire a minimum of 1000 cells/well. Images were analysed for nuclear area, length, perimeter and weighted moment of inertia (WMOI) using GE INCELL INVESTIGATOR™ software (available from GE Healthcare).
Four nuclear morphology parameters were abstracted from images using automated image analysis and data from replicate samples exposed to the same concentrations of MMC combined to yield population distribution histograms for each of the four parameters as shown in FIGS. 7 to 10. In each of FIGS. 7 to 10 the data in panel 1 is from control cells, and the data in panels 2-12 from MMC treated cells across the range of 0.01 μM-10 μM MMC.
KS distance analysis of the data using intra-sample measurements (i.e. calculation of the KS distance between cell data in the absence of MMC and cell data at a given concentration of MMC across the range 0.01 μM-10 μM) was performed and the resulting data shown in FIG. 11.
Inter-sample KS distances were calculated for all six possible parameter pairings (Area-Length; Area-WMOI; Length-WMOI; Area-Perimeter; Length-Perimeter; Perimeter-WMOI) by calculation of KS distance between data distributions for two parameters at the same MMC concentration. In order to perform KS distance measures on the different parameters of which had variant dimensions, parameter values were normalized (Pnorm) to a range from 0-1 using the function: […]

[1] = CHO-K1 cells, same MMC concentration, normalized parameters, FIG. 12

## CO[C@@]12[C@H](COC(N)=O)C3=C(C(=O)C(C)=C(N)C3=O)N1C[C@@H]1N[C@@H]12 [MMC, Mitomycin C]
CHO-K1 cells, 0, 0.16 and 2.5 μM MMC, 48 hours, HOECHST 33342 nuclear stain, FIG. 6
  Nuclear size, shape and morphology in representative HCS images: Changes in nuclear size, shape and morphology are clearly visible
CHO-K1 cells, 0.01 μM-10 μM MMC, FIG. 11
  Intra-sample KS distance relative to untreated cells (nuclear area, length, perimeter, WMOI): clear dose-dependent increase in KS distances for all four measured parameters
CHO-K1 cells, 0.16 μM MMC, FIG. 6 image B inset
  Micronuclei formation (higher magnification view): nuclei with associated micronuclei arising from clastogenic DNA damage
[1]
  Inter-sample KS distance Area and perimeter (A-W): low KS inter-sample distance at low and high MMC concentrations with an increase in KS distance at intermediate concentrations
  Inter-sample KS distance Area-Length (A-L): constant low KS distance across the entire MMC concentration range
  Inter-sample KS distance Length-WMOI (L-W): constant high KS distance over most of the MMC concentration range
  Inter-sample KS distance Perimeter-WMOI (P-W): decreases with MMC concentration
